From patent US9771378B2 (Denali Therapeutics, Inc., priority 2014, dated 2017)

Test system: Aβ42 (human neuroglioma H4 cells expressing human wild type APP751)
Test: In vitro cell screening assay with sandwich ELISA quantification of Aβ42 peptide
Type: cell-based
Conditions: H4 cells stably expressing human wild type APP751; Pro293 chemically defined medium; compounds 0.003-10 μM; incubated overnight (16-18 h); supernatant Aβ42 by sandwich ELISA; normalized to DMSO and DAPT; read-out: Aβ42 H4 Prot Fre IC50
Experimental: Human neuroglioma H4 cells were transfected with a pcDNA3.1 plasmid expressing human wild type APP751 cDNA and a stable cell line was generated using G418 selection. Cells are plated at 15,000 cells/well in Costar 96-well plates and placed at 37° C. and 5% CO2. Six hours after plating, cells are washed three times with Pro293™ chemically defined medium, followed by addition of compounds (0.003-10 μM, final DMSO concentration of 0.33%). Plates were incubated overnight (16-18 h) and supernatant was removed for quantification of AP peptides by sandwich ELISA. Cytotoxicity was evaluated using Cell-Titer 96W AQueous One Solution Cell Proliferation Assay according to the manufacturer's protocol.
ELISA Measurements of Aβ Peptides
Aβ peptide levels were quantified by sandwich ELISA. 96-well plates are coated with C-terminal specific Aβ antibodies recognizing either Aβ37, Aβ38, Aβ40, Aβ42, Aβ43 or a N-terminal specific Aβ antibody to detect Aβ 1-x. Plates are then blocked overnight at 4° C. with 1% bovine serum albumin (BSA) in PBS-T. Plates are washed and 100 μl of cultured cell supernatant or synthetic Aβ peptide standards and a detection antibody (4G8-HRP) are applied to the blocked plate and incubated overnight at 4° C. The next day, wells are washed before the addition […] of detection substrate (TMB peroxidase). Plates are then read for absorbance at 450 nm on a Molecular Devices SpectraMax M5e Microplate Reader.
IC50 values were calculated from values reported as percent of DMSO controls using nonlinear regression, based on a sigmoidal dose-response (variable slope) model. GraphPAD software from Prism used for calculation.

Row | Compound | IC50
1 | Cc1cn(-c2ccc(Nc3ncc4c(n3)N(C)C(c3cc(F)cc(F)c3)CO4)cc2)cn1 (single isomer, unassigned; (+)) [Example 23B] | 0.032 µM
2 | Cc1cc(-c2ccc(Nc3ncc4c(n3)N(C)C(c3ccccc3)CO4)cc2)ccn1 (single isomer, unassigned; (+)) [Example 24A] | 0.068 µM
3 | Cc1cn(-c2ccc(Nc3ncc4c(n3)N(C)C(c3ccccc3)CO4)cc2F)cn1 (single isomer, unassigned; (+)) [Example 25A] | 0.014 µM
4 | Cc1cn(-c2ccc(Nc3ncc4c(n3)N(C)C(c3ccccc3)CO4)cc2)cn1 (single isomer, unassigned; (+)) [Example 26A] | 0.055 µM
5 | Cc1cc(-c2ccc(Nc3ncc4c(n3)N(C)C(c3ccccc3)CO4)cc2F)ccn1 (single isomer, unassigned; (+)) [Example 27A] | 0.306 µM
6 | Cc1cc(-c2ccc(Nc3ncc4c(n3)N(C)C(c3cc(F)cc(F)c3)CO4)cc2)ccn1 (single isomer, unassigned; (+)) [Example 28B] | 0.06 µM
7 | Cc1cc(-c2ccc(Nc3ncc4c(n3)N(C)C(c3ccccc3C)CO4)cc2)ccn1 (single isomer, unassigned; (+)) [Example 29B] | 0.068 µM
8 | COc1cc(Nc2ncc3c(n2)N(C)C(c2cc(F)cc(F)c2)CO3)ccc1-n1cnc(C)c1 (single isomer, unassigned; (+)) [Example 30B] | 0.023 µM
9 | COc1cc(Nc2ncc3c(n2)N(C)C(c2ccccc2C)CO3)ccc1-n1cnc(C)c1 (single isomer, unassigned; (+)) [Example 31B] | 0.0296 µM
10 | Cc1cc(-c2ccc(Nc3ncc4c(n3)N(C)C(c3ccccc3C)CO4)cc2F)ccn1 (single isomer, unassigned; (+)) [Example 32B] | 0.131 µM
11 | Cc1cn(-c2ccc(Nc3ncc4c(n3)N(C)C(c3cc(F)cc(F)c3)CO4)cc2F)cn1 (single isomer, unassigned; (+)) [Example 33A] | 0.014 µM
12 | Cc1cn(-c2ccc(Nc3ncc4c(n3)N(C)C(c3ccccc3C)CO4)cc2F)cn1 (single isomer, unassigned; (+)) [Example 34A] | 0.02 µM
13 | COc1cc(Nc2ncc3c(n2)N(C)C(c2ccccc2C)CO3)ccc1-c1ccnc(C)c1 (single isomer, unassigned; (+)) [Example 35B] | 0.035 µM
14 | Cc1cc(-c2ccc(Nc3ncc4c(n3)N(C)C(c3cc(F)c(F)c(F)c3)CO4)cc2F)ccn1 (single isomer, unassigned; (+)) [Example 36A] | 0.107 µM
15 | Cc1cc(-c2ccc(Nc3ncc4c(n3)N(C)C(c3cc(F)c(F)c(F)c3)CO4)cc2)ccn1 (single isomer, unassigned; (+)) [Example 37A] | 0.059 µM
16 | COc1cc(Nc2ncc3c(n2)N(C)C(c2cc(F)c(F)c(F)c2)CO3)ccc1-c1ccnc(C)c1 (single isomer, unassigned; (+)) [Example 39A] | 0.041 µM
17 | COc1cc(Nc2ncc3c(n2)N(C)C(c2cc(F)c(F)c(F)c2)CO3)ccc1-n1cnc(C)c1 (single isomer, unassigned; (+)) [Example 40B] | 0.011 µM
18 | Cc1cc(-c2ccc(Nc3ncc4c(n3)N(C)C(c3cc(F)cc(F)c3)CO4)cc2F)ccn1 (single isomer, unassigned; (+)) [Example 41A] | 0.077 µM
19 | COc1cc(Nc2ncc3c(n2)N(C)C(c2cc(F)cc(F)c2)CO3)ccc1-c1ccnc(C)c1 (single isomer, unassigned; (+)) [Example 42A] | 0.036 µM
20 | Cc1cn(-c2ccc(Nc3ncc4c(n3)N(C)C(c3ccccc3C)CO4)cc2)cn1 (single isomer, unassigned; (+)) [Example 43A] | 0.031 µM
21 | COc1cc(Nc2ncc3c(n2)N(C)C(Cc2ccccc2)CO3)ccc1-n1cnc(C)c1 (single isomer, unassigned; (+)) [Example 47A] | 0.023 µM
22 | COc1cc(Nc2ncc3c(n2)N(C)C(c2ccc(F)cc2F)CO3)ccc1-n1cnc(C)c1 (single isomer, unassigned; (+)) [Example 48B] | 0.02 µM
23 | COc1cc(Nc2ncc3c(n2)N(C)C(c2ccc(F)cc2)CO3)ccc1-n1cnc(C)c1 (single isomer, unassigned; (+)) [Example 49B] | 0.009 µM
24 | COc1cc(Nc2ncc3c(n2)N(C)C(c2ccccc2Cl)CO3)ccc1-n1cnc(C)c1 (single isomer, unassigned; (+)) [Example 51B] | 0.058 µM
25 | COc1cc(Nc2ncc3c(n2)N(C)C(c2ccccc2C(F)(F)F)CO3)ccc1-n1cnc(C)c1 (single isomer, unassigned; (+)) [Example 55B] | 0.066 µM

Row | Compound | IC50
26 | Cc1cc(-c2ccc(Nc3ncc4c(n3)N(C)C(c3ccc(F)cc3)CO4)cc2F)ccn1 (single isomer, unassigned; (+)) [Example 56A] | 0.071 µM
27 | Cc1cc(-c2ccc(Nc3ncc4c(n3)N(C)C(Cc3ccccc3)CO4)cc2F)ccn1 (single isomer, unassigned; (+)) [Example 57A] | 0.118 µM
28 | Cc1cn(-c2ccc(Nc3ncc4c(n3)N(C)C(c3ccc(F)cc3)CO4)cc2F)cn1 (single isomer, unassigned; (+)) [Example 58A] | 0.028 µM
29 | Cc1cn(-c2ccc(Nc3ncc4c(n3)N(C)C(Cc3ccccc3)CO4)cc2F)cn1 (single isomer, unassigned; (+)) [Example 59A] | 0.081 µM
30 | COc1cc(Nc2ncc3c(n2)N(C)C(c2ccccc2OC(F)(F)F)CO3)ccc1-n1cnc(C)c1 (single isomer, unassigned; (+)) [Example 60B] | 0.078 µM
31 | COc1cc(Nc2ncc3c(n2)N(C)C(c2ccc(F)cc2)CO3)ccc1-c1ccnc(C)c1 (single isomer, unassigned; (+)) [Example 61B] | 0.058 µM
32 | COc1cc(Nc2ncc3c(n2)N(C)C(c2ccccc2OC(F)(F)F)CO3)ccc1-c1ccnc(C)c1 (single isomer, unassigned; (+)) [Example 62B] | 0.165 µM
33 | COc1cc(Nc2ncc3c(n2)N(C)C(c2ccc(F)cc2F)CO3)ccc1-c1ccnc(C)c1 (single isomer, unassigned; (+)) [Example 63B] | 0.064 µM
34 | Cc1cn(-c2ccc(Nc3ncc4c(n3)N(C)C(c3ccccc3OC(F)(F)F)CO4)cc2F)cn1 (single isomer, unassigned; (+)) [Example 64A] | 0.402 µM
35 | Cc1cc(-c2ccc(Nc3ncc4c(n3)N(C)C(c3ccc(F)cc3F)CO4)cc2F)ccn1 (single isomer, unassigned; (+)) [Example 66A] | 0.488 µM
36 | Cc1cn(-c2ccc(Nc3ncc4c(n3)N(C)C(c3ccccc3Cl)CO4)cc2F)cn1 (single isomer, unassigned; (+)) [Example 67A] | 0.124 µM
37 | COc1cc(Nc2ncc3c(n2)N(C)C(Cc2ccccc2)CO3)ccc1-c1ccnc(C)c1 (single isomer, unassigned; (+)) [Example 68A] | 0.05 µM
38 | Cc1cn(-c2ccc(Nc3ncc4c(n3)N(C)C(c3ccc(F)cc3F)CO4)cc2F)cn1 (single isomer, unassigned; (+)) [Example 69A] | 0.069 µM
39 | COc1cc(Nc2ncc3c(n2)N(C)C(c2ccccc2C(F)(F)F)CO3)ccc1-c1ccnc(C)c1 (single isomer, unassigned; (+)) [Example 70B] | 0.151 µM
40 | Cc1cn(-c2ccc(Nc3ncc4c(n3)N(C)C(c3ccccc3C(F)(F)F)CO4)cc2F)cn1 (single isomer, unassigned; (+)) [Example 84A] | 0.203 µM
41 | COc1cc(Nc2ncc3c(n2)N(C)C(c2ccccc2Cl)CO3)ccc1-c1ccnc(C)c1 (single isomer, unassigned; (+)) [Example 85B] | 0.13 µM
42 | COc1cc(Nc2ncc3c(n2)N(C)C(c2cc(C(F)(F)F)ccc2Cl)CO3)ccc1-n1cnc(C)c1 (single isomer, unassigned; (+)) [Example 88A] | 0.037 µM
43 | COc1cc(Nc2ncc3c(n2)N(C)C(c2ccc(F)cc2Cl)CO3)ccc1-n1cnc(C)c1 (single isomer, unassigned; (+)) [Example 93B] | 0.032 µM
44 | COc1cc(Nc2ncc3c(n2)N(C)C(c2ccc(F)cc2C(F)(F)F)CO3)ccc1-n1cnc(C)c1 (single isomer, unassigned; (+)) [Example 94B] | 0.029 µM
45 | COc1cc(Nc2ncc3c(n2)N(C)C(c2ccc(Cl)cc2Cl)CO3)ccc1-n1cnc(C)c1 (single isomer, unassigned; (+)) [Example 95B] | 0.015 µM
46 | Cc1cn(-c2ccc(Nc3ncc4c(n3)N(C)C(c3ccc(Cl)cc3Cl)CO4)cc2F)cn1 (single isomer, unassigned; (+)) [Example 96A] | 0.076 µM
47 | COc1cc(Nc2ncc3c(n2)N(C)C(c2cc(F)c(F)cc2F)CO3)ccc1-n1cnc(C)c1 (single isomer, unassigned; (+)) [Example 97B] | 0.013 µM
48 | Cc1cn(-c2ccc(Nc3ncc4c(n3)N(C)C(c3cc(F)c(F)cc3F)CO4)cc2F)cn1 (single isomer, unassigned; (+)) [Example 98A] | 0.02 µM
49 | Cc1cn(-c2ccc(Nc3ncc4c(n3)N(C)C(c3ccc(F)cc3C(F)(F)F)CO4)cc2F)cn1 (single isomer, unassigned; (+)) [Example 99A] | 0.206 µM
